Test system: AadA37
Test: coupled continuous spectrophotometric assay of pyrophosphate release
Format: biochemical, Morganella morganii
Settings: 5 mM ATP, 10 mM MgCl2, 50 mM HEPES pH 7.5, 37 °C

| Km [µM] | Structure (SMILES) |
| --- | --- |
| 2.67 | CN[C@@H]1[C@H](O[C@H]2[C@H](O[C@H]3[C@H](O)[C@@H](O)[C@H](N=C(N)N)[C@@H](O)[C@@H]3N=C(N)N)O[C@@H](C)[C@]2(O)C=O)O[C@@H](CO)[C@H](O)[C@H]1O [Streptomycin] |
| 8.17 | CN[C@@H]1[C@H](O)[C@H](NC)[C@H]2O[C@@]3(O)C(=O)C[C@@H](C)O[C@H]3O[C@@H]2[C@H]1O [Spectinomycin] |

Reference: PMC11927176 (BMC Microbiology, 2025)
